Experimental data as given in patent US6921811B2, “Bioactive coating composition and methods” (BioSurface Engineering Technologies, Inc., priority 1998, dated 2005).

Key:
[1] = system: GS-9L cells (rat gliosarcoma); experiment: Cell attachment, spreading and growth on coated low-attachment polystyrene wells; assay type: cell-based; conditions: 10^4 cells/well, serum-containing medium
From the text: (§1) Several cell types were used, including GS-9L cells (rat gliosarcoma), C3H10T1/2 (murine fibroblasts), Jurkat (human T cell), bovine aorta endothelial (BAE) cells and rat lymphocytes. GS-9L and C3H10T1/2 cells were maintained in log phase growth and detached from cultureware using Versene and collected by centrifugation. Jurkat cells grew as single cell suspensions and were collected by centrifugation. Rat lymphocytes were collected from heparinized blood by density gradient isolation over Ficoll-Hypaque® media. The collected cells were rinsed once by low speed centrifugation and suspended in either serum-free Dulbecco's Modified Eagles Medium (DMEM) containing pyruvate or RPMI 1640 containing 10% fetal bovine serum (FBS) supplemented with pyruvate. Aliquots of 10^4 cells in 100 μL were used in subsequent adhesion studies.
(§2) The cells were examined after plating using an inverted, phase-contrast microscope. At selected time points up to 4 days after initial seeding, the cells were rinsed three times in saline and fixed in buffered 10% formalin or 35% ethanol. In some cases, the cells were stained in situ with a 0.01 % aqueous solution of crystal violet. The amount of attachment was scored visually or quantitated. To establish the relative number of cells bound, crystal violet stained cells were dissolved in a solution of 70% ethanol containing 0.1% sodium dodecyl sulfate and 0.38 M Tris and the absorbance monitored at 610 nm, using the methods of Scragg and Ferreira (Anal Biochem 198:80-5, 1991) and Grando et al. (Skin Pharmacol 6:135-47, 1993).
(§3) The cells of Example 7 were added to untreated polystyrene wells, wells coated with silyl-heparin as in Example 4, with silyl-heparin-fibronectin as in Example 5, and with only fibronectin by incubation as described in Example 5. […] Cells were seeded at a concentration of 10^4 cells/well in serum-containing medium.
(§4) The cells grew to confluency by 4 days. […] No effort was made to grow the cells in a defined- or serum-low medium known to support growth.

[2] = system: bovine aorta endothelial (BAE) cells; experiment: as above; assay type: cell-based; conditions: 10^4 cells/well, serum-containing medium
From the text: as §1, §2, §3, §4

[3] = target: T1, vascular endothelial growth factor (VEGF) (Homo sapiens, UniProt P15692); experiment: VEGF binding to silyl-heparin coated wells, immunoassay; conditions: anti-VEGF antibodies; absorbance 405 nm
T1 sequence (P15692 27-191 isoform P15692-4 limits assumed): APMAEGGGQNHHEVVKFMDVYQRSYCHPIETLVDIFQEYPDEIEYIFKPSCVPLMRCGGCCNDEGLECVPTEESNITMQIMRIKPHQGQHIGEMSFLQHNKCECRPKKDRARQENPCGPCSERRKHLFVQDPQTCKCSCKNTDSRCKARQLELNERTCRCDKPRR
Experimental: Wells of 96 well polystyrene microtiter plates were coated with 30 μL of silyl heparin for 15 minutes at 37° C. The wells were rinsed extensively in water and air-dried. The wells were blocked by adding 250 μL of PBS containing 1 % BSA for 30 minutes. After removing the blocking solution, VEGF in PBS/BSA was added in 100 μL and at the appropriate concentration. The plate was incubated at 37° C. for 1 hour and rinsed 5 times in water. An aliquot of PBS/BSA containing rabbit anti-VEGF antibodies (1:125) was added and the plate incubated for one hour. After rinsing in water, an aliquot of PBS/BSA containing horseradish peroxidase-conjugated anti-rabbit IgG (1:250) was added and incubated for one hour. After rinsing, 200 μL of chromogen (2,2′-azinobis 3-ethylbenzothiazoline-6-[…]) from a commercially available kit was added, the color developed, and the reaction stopped by adding 50 μL of aqueous 2% sodium dodecyl sulfate (SDS). The absorbance was monitored at 405 nm.

C3H10T1/2 cells = experiment: C3H10T1/2 cell attachment to a variety of coated substrates; assay type: cell-based, murine
Experimental: as §2
The general applicability of silyl-heparin-fibronectin complex was evaluated by applying this coating using the methods of Examples 4 and 5 to a variety of surfaces, including polystyrene, polylactide:polyglycolide, polycaprolactone, polyurethane and stainless steel. […] They did, however, bind moderately well to polylactide:polyglycolide and to polycaprolactone, and very well to stainless steel.

bFGF = target: T2, bFGF (Homo sapiens, UniProt P09038); experiment: bFGF binding to silyl-heparin coated polystyrene wells, immunoassay
T2 construct: purchased Sigma Chemical Co
T2 sequence (P09038 143-288, species assumed): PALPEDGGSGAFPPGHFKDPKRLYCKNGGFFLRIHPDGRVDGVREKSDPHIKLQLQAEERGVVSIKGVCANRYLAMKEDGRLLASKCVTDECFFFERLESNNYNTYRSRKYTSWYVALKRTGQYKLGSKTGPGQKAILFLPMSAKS
Experimental: Wells of 96 well polystyrene microtiter plates, with a well surface area of 0.32 cm^2, were coated with 30 μl of silyl heparin for 15 minutes at 37° C. After rinsing and air-drying, bFGF (Sigma Chemical Co.) in PBS/BSA was added in 150 μL aliquots in doubling dilutions. The plate was incubated at 37° C. for 1 hour and rinsed 5 times in PBS. An aliquot 150 μl of PBS/BSA containing 1:500 rabbit anti-FGF antibodies were added, incubated for 1 hour and rinsed. In some cases an irrelevant rabbit antibody was used at a similar concentration (rabbit anti-TGF-receptor II, Santa Cruz Biotechnology). An aliquot of PBS/BSA containing 1:500 HRPO-conjugated donkey anti-rabbit IgG added, and after incubation and rinsing ABTS-chromogen added. All antibody solutions were filtered through 0.2 micron filters prior to use. The absorbance was monitored at 405 nm. […] When anti-TGF-II (irrelevant antibody directed against the transforming growth factor receptor) was used instead of anti-FGF and at the same anti-dilutions, no bFGF was detected. When TGF-β, at a concentration of 40 ng was used as the growth factor molecule, no activity was detected with anti-bFGF antibodies.

benzyl-(1,2 dimethyl)disilyl heparin [silyl-heparin]
CELL ATTACHMENT [1]: did not attach
CELL ATTACHMENT [2]: did not attach
binding of VEGF to silyl-heparin [3]: VEGF bound to silyl-heparin and the binding was linear
C3H10T1/2 cell attachment on prolonged culture (C3H10T1/2 cells; cells cultured for up to 4 days): no cell attachment was evident
effect of coating or treatment on C3H10T1/2 cell attachment (C3H10T1/2 cells; regardless of the substrate): essentially eliminated cell attachment
C3H10T1/2 CELL ATTACHMENT (C3H10T1/2 cells; surface: Stainless steel, determined by crystal violet staining): inhibition of cell attachment was noted
upper saturation limit of the silyl-heparin complex for bFGF (bFGF; color development linear at high concentrations): had not been reached
binding of bFGF to silyl-heparin complexes on a contacting surface (bFGF; immunoassays): readily bound
binding of both fibrinogen and bFGF to heparin on a silyl-heparin complex (bFGF; immunoassays): without displacement of either
